Assay results published in US10138214B2, “Substituted triazoles and methods relating thereto” (Neurocrine Biosciences, Inc., priority 2015, dated 2018).

What was measured:
[1] = tested on: hippocampal-kindled focal seizures; assay: Hippocampal-kindled rat test (focal seizures); assay type: in vivo, rats; conditions: i.p. injection
Description: Electrodes are implanted into the hippocampus of anesthetized rats, which are then allowed to recover for 1 week. Following the rapid kindling protocol (Lothman et al., Brain Res., 1994. 649:71-84), the rats are stimulated with […] for 10 s, 50 Hz, every 30 min for 6 h on alternate days until they are fully kindled (4-5 stimulus days). After 1 week of rest, the animals are given the same electrical stimulus, which served as a baseline. The animals are pretreated with the test compound (by i.p. injection) and then tested at various intervals. At each time point, the behavioral seizure score and after-discharge duration are recorded. The behavioral seizure scores are scored according to the following criteria (Racine, Electroencephalogr Clin Neurophysiol, 1972. 32(3):281-94): stage 1—mouth and facial clonus; stage 2—stage 1 plus head nodding; stage 3—stage 2 plus forelimb clonus; stage 4—stage 3 plus rearing, and stage 5—stage 4 plus repeated rearing and falling. The after-discharge threshold (ADT) can also be measured in the kindled rat. The ADT is defined as the lowest current at which an after-discharge of at least 4 s is elicited. […] The initial stimulation is conducted at an intensity of 20 μA with 10 μA increments every 1-2 min until an after-discharge was elicited. Fifteen minutes after the predrug threshold determination, a single dose of the test substance is administered to 2 animals in a volume of 0.04 ml/10 g body weight. In this way, the animals serve as their own control. The individual rat ADT is then determined at varying times (i.e., 0.25, 1, 2 and 4 h) after drug administration.

[2] = tested on: pilocarpine-induced convulsive status epilepticus; assay: Pilocarpine rat model (initial qualitative efficacy screen); assay type: in vivo, Sprague Dawley rats; conditions: i.p., administered after seizure onset, mpk=mg/kg
Description: Compounds are assessed for their ability to halt pilocarpine-induced convulsive status epilepticus (SE). To identify doses of drug to be used in the SE testing, acute motor impairment is assessed following the intraperitoneal (i.p.) administration of doses starting at 100 and 300 mg/kg. Individual Sprague Dawley rats are evaluated for acute toxicity over several time points following administration of test compounds. The results obtained from this initial study determine whether any dose adjustments are required. The behavior of the animals is observed closely and recorded over a four hour period. Routinely, a minimum number of four rats, two per dose are employed in this acute screen.
To determine if the test substance can halt acute pilocarpine-induced status an initial qualitative efficacy screen is performed. A challenge dose of pilocarpine (50 mg/kg) is administered i.p. and animals observed until the first convulsive (e.g., Stage 3, 4, or 5) seizure (time zero). The seizure severity is determined using the Racine scale. At this point a minimally toxic dose of the candidate drug is administered to a group of 8 male albino Sprague Dawley rats (150-180 g) via the i.p. route of administration. Efficacy is defined by the ability of an investigational drug to halt the further expression of pilocarpine induced convulsive seizures (e.g., Stage 3, 4, or 5). […] In this test, the investigational drug is administered 30 minutes after the first observed convulsive seizure. This is a more severe test of a candidate's ability to halt the induced status. […] A minimum of 4 doses with at least 8 rats per dose are utilized in the quantification study.

harmaline-induced tremor = assay: Harmaline-induced tremor assay; assay type: in vivo, ICR mice; conditions: mice, harmaline 30 mg/kg s.c.; oral doses noted; p<0.05; mpk=mg/kg
Description: The harmaline-induced tremor assay is the primary preclinical model of induced tremor. Male ICR mice (10 weeks old) were used in this study. Mice were group housed in OPTI mouse ventilated cages. All animals remained group housed during the duration of the study. All mice were acclimated to the colony room for at least one week prior to testing. During the period of acclimation, mice were examined on a regular basis, handled, and weighed to assure adequate health and suitability. Mice were maintained on a 12/12 light/dark cycle. The room temperature was maintained between 20 and 23° C. with a relative humidity maintained between 30% and 70%. Chow and water were provided ad libitum for the duration of the study. In each test, animals were randomly assigned across treatment groups. Ten mice were tested in each group. […] After habituation, tremor activity of the mice was measured for approximately 8 min. The recorded frequencies (1-64 Hz) of activity and the number of tremor events were captured electronically. Data were analyzed by the tremor monitor software (San Diego Instruments) in a two part process. Using a Fast Fourier Transform (FFT), an output is provided showing the percentage of activity (energy) recorded at each frequency. […] Data were analyzed by analysis of variance (ANOVA) followed by Fisher PLSD post-hoc analysis. […]

With `N[C@@H](Cc1ccccc1)C(=O)Nc1cn(Cc2c(F)cccc2F)nn1` [Compound 3a, (2S)-2-amino-N-{1-[(2,6-difluorophenyl)methyl]-1H-1,2,3-triazol-4-yl}-3-phenylpropanamide] as the compound, how does the “active at (dose)” value [1] read?
The value was “active at 200 mpk”.

And the “Dose at which activity was shown” value [2]?
The value was 200 mpk.

With `O=C(Nc1cn(Cc2c(F)cccc2F)nn1)[C@@H]1COCCN1` [Compound 3c, (3S)—N-{1-[(2,6-difluorophenyl)methyl]-1H-1,2,3-triazol-4-yl}morpholine-3-carboxamide] as the compound, how does the “active at (dose)” value [1] read?
The value was “active at 50 mpk”.

With `O=C(Nc1cn(Cc2c(F)cccc2F)nn1)[C@H]1COCCN1` [Compound 3d, (3R)—N-{1-[(2,6-difluorophenyl)methyl]-1H-1,2,3-triazol-4-yl}morpholine-3-carboxamide] as the compound, how does the ED50 [1] read?
Its ED50 is “ED50 79 mpk”.

What about the “Dose at which activity was shown” value [2] of the same compound?
The value was 450 mpk.

With `CN(C)c1cn(Cc2c(F)cccc2F)nn1` [Compound 8a, [1-(2,6-difluoro-benzyl)-1H-[1,2,3]triazol-4-yl]-dimethyl-amine] as the compound, how does the ED50 [1] read?
Its ED50 is “ED50 25 mpk”.

What about the “Dose at which activity was shown” value [2] of the same compound?
The value was 65 mpk.

`Fc1cccc(F)c1Cn1cc(N2CCOCC2)nn1` [Compound 10a, 4-{1-[(2,6-difluorophenyl)methyl]-1H-1,2,3-triazol-4-yl}morpholine] was tested. Which ED50 [1] did it give?
Its ED50 is “ED50 32 mpk”.

What about the “Dose at which activity was shown” value [2] of the same compound?
The value was 65 mpk.

Which “Dose at which activity was shown” value [2] does the source give for `Fc1cccc(F)c1Cn1cc(N2CCCC2)nn1` [Compound 10f, 1-[(2,6-difluorophenyl)methyl]-4-(pyrrolidin-1-yl)-1H-1,2,3-triazole] here?
Its value is 65 mpk.

How did the “Dose showing significant reductions in total tremors” value (harmaline-induced tremor) turn out when `O=C1CCCN1c1cn(Cc2c(F)cccc2F)nn1` [Compound 14a, 1-{1-[(2,6-difluorophenyl)methyl]-1H-1,2,3-triazol-4-yl}pyrrolidin-2-one] was run?
Its value is 50 mpk.

Which “Dose showing significant reductions in total tremors” value (harmaline-induced tremor) does the source give for `O=C1OCCN1c1cn(Cc2c(F)cccc2F)nn1` [Compound 15a, 3-{1-[(2,6-difluorophenyl)methyl]-1H-1,2,3-triazol-4-yl}-1,3-oxazolidin-2-one] here?
The value was 50 mpk.

How did the “active at (dose)” value [1] turn out when `O=C1NCCN1c1cn(Cc2c(F)cccc2F)nn1` [Compound 16a, 1-{1-[(2,6-difluorophenyl)methyl]-1H-1,2,3-triazol-4-yl}imidazolidin-2-one] was run?
The value was “active at 100 mpk”.
